Assay results: patent US8124637B2, “Anthra [1, 2-d]imidazole-6,11-dione derivatives, preparation method and application thereof” (National Defense Medical Center, priority 2010, dated 2012)
Entries after “also recorded” stand apart in the source; their conditions may differ.

Columns and labels:
[1] = tested on: H1299 cells; test: MTT assay (relative cell survival), H1299; conditions: PhTERT-SEAP (H1299), 100 μM
[2] = MTT assay (relative cell survival), H1299; conditions: human, H1299 non-small cell lung cancer cells (PhTERT-SEAP), Relative MTT viability (%)
[3] = tested on: hTERT promoter (PhTERT) expression; test: SEAP assay (PhTERT-SEAP reporter, H1299); assay type: cell-based, human; conditions: Homo sapiens, NCI-H1299, PhTERT-SEAP (H1299); for activity at 1 µM: read-out: Relative SEAP activity (%); for activity at 10 µM / activity at 100 µM: read-out: Relative SEAP activity (%) (converted)
Method: H1299 were grown in RPMI 1640 media supplemented with 10% fetal bovine serum, 100 units/mL penicillin and […] streptomycin in a humidified atmosphere with 5% CO2 at 37° C. Culture media were changed every three days. To establish stable cell lines that the expression of hTERT could be monitored by a reporter system, a about 3.3 kbp DNA fragment ranging from −3338 to +1 bp of the hTERT gene (hTERT promoter, PhTERT) was subcloned upstream to a secreted alkaline phosphatase gene (SEAP) and transfected into H1299 bp electroporation. The stable clones were selected using G418. The stable clones derived from H1299 were cultured using conditions that are similar to their parental cells.
Secreted alkaline phosphatase was used as the reporter system to monitor the transcriptional activity of hTERT. Here, about 10^4 cells each were grown in 96-well plates and incubated at 37° C. for 24 hours and changed with fresh media. Varying amounts of drugs were added and cells were incubated for another 24 hours. Culture media were collected and heated at 65° C. for 10 min to inactivate heat-labile phosphatases. An equal amount of SEAP buffer (2 M diethanolamine, 1 mM MgCl2, and 20 mM L-homoarginine) was added to the media and p-nitrophenyl phosphate was added to a final concentration of 12 mM. Absorptions at 405 nm were taken, and the rate of absorption increase is determined (the increasing rate of absorbance at 405 nm was used to represent the activity of SEAP).

[4] = target: T1, telomerase (total cell lysates of lung cancer cell line H1299) (Homo sapiens, UniProt O14746); test: Telomere repeat amplification protocol (TRAP) assay; assay type: biochemical; conditions: gel; for inhibition effect/activity of telomerase (TRAP): preliminary screening at 10 μM
T1 construct: As a source of telomerase, the total cell lysates derived from lung cancer cell line H1299 cells were used; endogenous in cells; host or cells: H1299 lung cancer cells (total cell lysate)
T1 sequence (O14746 whole entry): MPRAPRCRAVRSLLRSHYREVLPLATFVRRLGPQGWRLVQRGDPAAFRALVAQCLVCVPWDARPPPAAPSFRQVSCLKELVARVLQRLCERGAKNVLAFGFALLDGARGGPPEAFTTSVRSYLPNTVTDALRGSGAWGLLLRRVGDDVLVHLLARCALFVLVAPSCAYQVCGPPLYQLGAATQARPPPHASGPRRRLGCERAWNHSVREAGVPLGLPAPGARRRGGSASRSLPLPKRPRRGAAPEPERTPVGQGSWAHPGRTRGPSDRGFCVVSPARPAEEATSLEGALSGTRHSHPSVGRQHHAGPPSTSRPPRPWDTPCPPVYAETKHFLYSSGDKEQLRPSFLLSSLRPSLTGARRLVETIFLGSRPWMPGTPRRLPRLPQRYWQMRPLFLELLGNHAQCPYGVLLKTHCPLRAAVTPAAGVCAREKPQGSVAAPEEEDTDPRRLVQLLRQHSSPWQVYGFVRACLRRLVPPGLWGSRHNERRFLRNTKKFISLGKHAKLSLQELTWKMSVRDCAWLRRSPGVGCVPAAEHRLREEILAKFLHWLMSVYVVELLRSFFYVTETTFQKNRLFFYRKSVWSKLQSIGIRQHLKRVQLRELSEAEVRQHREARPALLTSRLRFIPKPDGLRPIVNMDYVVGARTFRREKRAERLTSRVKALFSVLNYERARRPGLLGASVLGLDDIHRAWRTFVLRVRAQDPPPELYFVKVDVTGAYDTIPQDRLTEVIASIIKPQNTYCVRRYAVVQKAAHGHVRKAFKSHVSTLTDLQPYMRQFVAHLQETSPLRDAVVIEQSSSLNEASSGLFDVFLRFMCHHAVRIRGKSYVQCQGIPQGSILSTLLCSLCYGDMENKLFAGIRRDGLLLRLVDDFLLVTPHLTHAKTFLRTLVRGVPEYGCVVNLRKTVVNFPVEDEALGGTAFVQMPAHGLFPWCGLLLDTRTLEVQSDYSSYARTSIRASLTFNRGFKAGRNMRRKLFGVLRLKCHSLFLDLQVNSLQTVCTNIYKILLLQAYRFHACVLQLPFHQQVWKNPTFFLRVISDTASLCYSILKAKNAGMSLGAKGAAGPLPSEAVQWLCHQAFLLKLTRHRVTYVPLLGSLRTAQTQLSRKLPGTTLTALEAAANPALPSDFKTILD
T1 sequence (O60832 whole entry partner): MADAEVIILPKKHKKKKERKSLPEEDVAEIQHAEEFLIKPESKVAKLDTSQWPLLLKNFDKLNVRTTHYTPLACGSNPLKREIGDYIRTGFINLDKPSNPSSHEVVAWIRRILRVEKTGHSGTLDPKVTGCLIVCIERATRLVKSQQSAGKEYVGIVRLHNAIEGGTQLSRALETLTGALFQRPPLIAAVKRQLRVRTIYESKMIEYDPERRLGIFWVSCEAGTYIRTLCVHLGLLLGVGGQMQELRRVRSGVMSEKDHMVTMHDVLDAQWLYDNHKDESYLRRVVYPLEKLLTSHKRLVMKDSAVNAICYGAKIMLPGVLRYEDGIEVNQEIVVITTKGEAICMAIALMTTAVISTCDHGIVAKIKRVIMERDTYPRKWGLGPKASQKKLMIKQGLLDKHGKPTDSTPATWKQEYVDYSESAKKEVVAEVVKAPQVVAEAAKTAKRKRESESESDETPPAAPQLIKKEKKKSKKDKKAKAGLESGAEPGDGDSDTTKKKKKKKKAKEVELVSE
T1 sequence (Q9NX24 whole entry partner): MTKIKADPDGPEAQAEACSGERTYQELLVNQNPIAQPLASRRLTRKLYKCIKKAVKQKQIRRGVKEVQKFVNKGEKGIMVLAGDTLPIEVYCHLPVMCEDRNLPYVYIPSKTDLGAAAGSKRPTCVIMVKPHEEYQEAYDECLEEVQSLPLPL
T1 sequence (Q9NPE3 whole entry partner): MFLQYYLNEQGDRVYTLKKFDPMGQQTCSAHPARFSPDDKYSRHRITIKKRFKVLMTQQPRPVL
T1 sequence (Q9NY12 whole entry partner): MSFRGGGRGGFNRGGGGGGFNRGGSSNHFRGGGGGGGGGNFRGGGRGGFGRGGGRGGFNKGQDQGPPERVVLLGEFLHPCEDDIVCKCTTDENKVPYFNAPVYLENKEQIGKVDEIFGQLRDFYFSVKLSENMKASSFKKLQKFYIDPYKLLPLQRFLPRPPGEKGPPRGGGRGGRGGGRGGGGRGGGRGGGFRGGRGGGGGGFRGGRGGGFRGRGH
Method: Telomerase activity was detected by a modified version of the general TRAP protocol. Telomerase products were resolved by 10% polyacrylamide gel electrophoresis and visualized by staining with SYBER Green. As a source of telomerase, the total cell lysates derived from lung cancer cell line H1299 cells were used. Protein concentration of the lysates was assayed using Bio-Rad protein assay kit using BSA standards.
In the FIGS. 3A, 3B and FIG. 4, a positive control group (P) used water that had been sterilized three times in the assay; while a negative control group (N) used RNase A (CLONTECH) (5 μL, 0.1 mg/mL) in the assay.
In the positive control group (P), due to the absence of inhibitor, the telomerase could extend the telomere, such that some longer telomere fragments could be observed; while there was not observed in the negative control group (N). In the result of TRAP assay (FIG. 3A to 3B), compounds with a concentration of 10 μM was used as the preliminary screening. In the gel, standard compound A was 1,2-diaminoanthraquinone, D was doxorubicin, and M was mitoxantrone.

Row | Compound | Relative MTT viability (%) [1] | viability at 72 h, 1 µM [2] | viability at 72 h, 10 µM [2] | viability at 72 h, 100 µM [2] | activity at 1 µM [3] | activity at 10 µM [3] | activity at 100 µM [3] | telomerase inhibiting effect (TRAP) ([4]; 1 μM) | inhibition effect/activity of telomerase (TRAP) [4]
1 | O=C1c2ccccc2C(=O)c2c1ccc1nc(CNCc3cccc(C(F)(F)F)c3)[nH]c21 [CL13, 2-((3-(trifluoromethyl)benzylamino)methyl)-1H-anthra[1,2-d]imidazole-6,11-dione] | 32.26 ± 2.68% | 114 ± 3.31% | 110% | > 40% | 87.1 ± 2.04% | 89.5% | 4.27% | – | –
2 | CC1CCN(Cc2nc3ccc4c(c3[nH]2)C(=O)c2ccccc2C4=O)CC1 [CL17, 2-((4-methylpiperidin-1-yl)methyl)-1H-anthra[1,2-d]imidazole-6,11-dione] | 32.26 ± 2.68% | 114 ± 3.31% | 110% | > 40% | 102 ± 4.81% | 97.3% | 25.6% | – | –
3 | O=C1c2ccccc2C(=O)c2c1ccc1nc(CN3CCC(CCCC4CCNCC4)CC3)[nH]c21 [CL20, 2-((4-(3-(piperidin-4-yl)propyl)piperidin-1-yl)methyl)-1H-anthra[1,2-d]imidazole-6,11-dione] | – | 97 ± 4.74% | < 50% | – | 96 ± 5.48% | 7.52% | 3.08% | telomerase inhibiting effect could be observed still | more significant inhibition effect/activity of telomerase; also recorded: highest inhibition effect/activity of telomerase
4 | CCN1CCN(Cc2nc3ccc4c(c3[nH]2)C(=O)c2ccccc2C4=O)CC1 [CL25, 2-((4-ethylpiperazin-1-yl)methyl)-1H-anthra[1,2-d]imidazole-6,11-dione] | – | 86.2 ± 5.18% | < 50% | – | 91.8 ± 3% | 13.6% | -4.43% | – | more significant inhibition effect/activity of telomerase
5 | O=C1c2ccccc2C(=O)c2c1ccc1nc(CCCl)[nH]c21 [CL35, 2-(2-chloroethyl)-1H-anthra[1,2-d]imidazole-6,11-dione] | 40.27 ± 1.32% | 91.1 ± 5.56% | 85.6% | > 40% | 94.7 ± 9.12% | 82.8% | 7.62% | – | –
6 | O=C1c2ccccc2C(=O)c2c1ccc1nc(CCN3CCN(c4ccccn4)CC3)[nH]c21 [CL38, 2-(2-(4-(pyridin-2-yl)piperazin-1-yl)ethyl)-1H-anthra[1,2-d]imidazole-6,11-dione] | 57.03 ± 10.76% | 98 ± 7.72% | 92.8% | > 40% | 87.6 ± 8.63% | 62.9% | 1.49% | – | –
